Common to all, as to assay: minimal inhibitory concentration, agar dilution method (in vitro)
Common to all, as to type: cell-based
(Agar dilution tests growth on a series of plates holding different concentrations.)

One assay has as its system Proteus miravilis 2425. The source says:
(§1) When determined according to the agar dilution method, the penicillins [I] afford the minimal inhibitory concentrations as shown in the following Table 1: […]

The subject of assay [1] is Pseudomonas aeruginosa 104.
From the text: as §1

Assay [2] has as its system Klebsiella pneumoniae 602.
From the text: as §1

Assay [3] concerns Staphylococcus aureus 209P.
From the text: as §1

In a further assay the test system is Escherichia coli NIHJ.
From the text: as §1

SMILES strings stand for the structures. Values after ≈ are worked out from the molar mass of the structure shown.

By MIC is commonly meant the lowest concentration that inhibits growth of the organism. A lower MIC goes with a more susceptible organism.

As for `COc1c(C(=O)NC(C(=O)N[C@@H]2C(=O)N3[C@@H]2SC(C)(C)[C@@H]3C(=O)O)c2ccccc2)cnc2ccccc12` (stereo partly drawn) [Example 14], the MIC was 12.5 µg/mL (≈ 23.4 µM) against Proteus miravilis 2425; 12.5 µg/mL (≈ 23.4 µM) in assay [1]; 25 µg/mL (≈ 46.8 µM) in assay [2]; 0.2 µg/mL (≈ 0.374 µM) in assay [3]; 25 µg/mL (≈ 46.8 µM) against Escherichia coli NIHJ.
For the compound `CN(C)c1nccc2ncc(C(=O)NC(C(=O)NC3C(=O)N4C3SC(C)(C)C4C(=O)O)c3ccccc3)c(O)c12` (stereo not drawn) [Example 45], the MIC was found to be 6.25 µg/mL (≈ 11.1 µM) in the assay on Proteus miravilis 2425; 12.5 µg/mL (≈ 22.1 µM) in assay [1]; 3.13 µg/mL (≈ 5.54 µM) in assay [2]; 0.78 µg/mL (≈ 1.38 µM) in assay [3]; 6.25 µg/mL (≈ 11.1 µM) with Escherichia coli NIHJ.
On to `Cc1nc(C)c2c(O)c(C(=O)NC(C(=O)NC3C(=O)N4C3SC(C)(C)C4C(=O)O)c3ccccc3)cnc2n1` (stereo not drawn) [Example 48], for which the MIC against Proteus miravilis 2425 came to 6.25 µg/mL (≈ 11.4 µM); in assay [1], 12.5 µg/mL (≈ 22.7 µM); in assay [2], 3.13 µg/mL (≈ 5.68 µM); in assay [3], 0.78 µg/mL (≈ 1.42 µM); in the assay on Escherichia coli NIHJ, 12.5 µg/mL (≈ 22.7 µM).
On to `CCCCN(CCCC)c1ccc2ncc(C(=O)NC(C(=O)NC3C(=O)N4C3SC(C)(C)C4C(=O)O)c3ccccc3)c(O)c2n1` (stereo not drawn) [Example 42], for which the MIC with Proteus miravilis 2425 was found to be 3.13 µg/mL (≈ 4.82 µM); in assay [1], 3.13 µg/mL (≈ 4.82 µM); in assay [2] it was 3.13 µg/mL (≈ 4.82 µM); in assay [3], 1.56 µg/mL (≈ 2.4 µM); with Escherichia coli NIHJ, 3.13 µg/mL (≈ 4.82 µM).
For the compound `CC1(C)SC2C(NC(=O)C(NC(=O)c3cnc4cncnc4c3O)c3ccccc3)C(=O)N2C1C(=O)O` (stereo not drawn) [Example 50], the minimal inhibitory concentration (MIC) with Proteus miravilis 2425 worked out at 1.56 µg/mL (≈ 2.99 µM); in assay [1] it was 3.13 µg/mL (≈ 5.99 µM); in assay [2], 0.78 µg/mL (≈ 1.49 µM); in assay [3], 0.78 µg/mL (≈ 1.49 µM); with Escherichia coli NIHJ, 1.56 µg/mL (≈ 2.99 µM).
As to `CCNc1ccc2ncc(C(=O)NC(C(=O)NC3C(=O)N4C3SC(C)(C)C4C(=O)O)c3ccccc3)c(O)c2n1` (stereo not drawn) [Example 41], the MIC in the assay on Proteus miravilis 2425 amounted to 6.25 µg/mL (≈ 11.1 µM); in assay [1], 6.25 µg/mL (≈ 11.1 µM); in assay [2] it was 6.25 µg/mL (≈ 11.1 µM); in assay [3], 0.78 µg/mL (≈ 1.38 µM); in the assay with Escherichia coli NIHJ it was 3.13 µg/mL (≈ 5.54 µM).
In the case of `Cc1nc(C)c2ncc(C(=O)NC(C(=O)NC3C(=O)N4C3SC(C)(C)C4C(=O)O)c3ccccc3)c(O)c2n1` (stereo not drawn) [Example 55], the MIC in the assay with Proteus miravilis 2425 is 3.13 µg/mL (≈ 5.68 µM); in assay [1] it was 3.13 µg/mL (≈ 5.68 µM); in assay [2], 1.56 µg/mL (≈ 2.83 µM); in assay [3], 0.78 µg/mL (≈ 1.42 µM); against Escherichia coli NIHJ, 3.13 µg/mL (≈ 5.68 µM).
On to `CC1(C)S[C@@H]2[C@H](NC(=O)C(NC(=O)c3cnc4cc(S(C)(=O)=O)ccc4c3O)c3ccccc3)C(=O)N2[C@H]1C(=O)O` (stereo partly drawn) [Example 22], for which the MIC in the assay on Proteus miravilis 2425 worked out at 3.13 µg/mL (≈ 5.23 µM); in assay [1], 6.25 µg/mL (≈ 10.4 µM); in assay [2] it was 0.39 µg/mL (≈ 0.651 µM); in assay [3], 0.39 µg/mL (≈ 0.651 µM); against Escherichia coli NIHJ it was 12.5 µg/mL (≈ 20.9 µM).
As to `CC1(C)S[C@@H]2[C@H](NC(=O)C(NC(=O)c3cnc4cc(Cl)ccc4c3O)c3ccccc3)C(=O)N2[C@H]1C(=O)O` (stereo partly drawn) [Example 15], the MIC turned out to be 1.56 µg/mL (≈ 2.81 µM) in the assay on Proteus miravilis 2425; 3.13 µg/mL (≈ 5.64 µM) in assay [1]; 0.39 µg/mL (≈ 0.703 µM) in assay [2]; 0.2 µg/mL (≈ 0.36 µM) in assay [3]; 3.13 µg/mL (≈ 5.64 µM) in the assay with Escherichia coli NIHJ.
In the case of `CC1(C)S[C@@H]2[C@H](NC(=O)C(NC(=O)c3cnc4cc(C(F)(F)F)ccc4c3O)c3ccccc3)C(=O)N2[C@H]1C(=O)O` (stereo partly drawn) [Example 20], the MIC was 3.13 µg/mL (≈ 5.32 µM) in the assay with Proteus miravilis 2425; 6.25 µg/mL (≈ 10.6 µM) in assay [1]; 0.39 µg/mL (≈ 0.663 µM) in assay [2]; 0.39 µg/mL (≈ 0.663 µM) in assay [3]; 12.5 µg/mL (≈ 21.2 µM) against Escherichia coli NIHJ.
Take `Cc1ccnc2c(O)c(C(=O)NC(C(=O)NC3C(=O)N4C3SC(C)(C)C4C(=O)O)c3ccccc3)cnc12` (stereo not drawn) [Example 34]: the MIC against Proteus miravilis 2425 came to 3.13 µg/mL (≈ 5.84 µM); in assay [1], 3.13 µg/mL (≈ 5.84 µM); in assay [2], 6.25 µg/mL (≈ 11.7 µM); in assay [3] it was 1.56 µg/mL (≈ 2.91 µM); in the assay on Escherichia coli NIHJ it was 3.13 µg/mL (≈ 5.84 µM).
For `CC(=O)CC(=O)Nc1ccc2ncc(C(=O)NC(C(=O)NC3C(=O)N4C3SC(C)(C)C4C(=O)O)c3ccccc3)c(O)c2n1` (stereo not drawn) [Example 31], the MIC in the assay on Proteus miravilis 2425 came to 6.25 µg/mL (≈ 10.1 µM); in assay [1] it was 6.25 µg/mL (≈ 10.1 µM); in assay [2], 6.25 µg/mL (≈ 10.1 µM); in assay [3], 0.78 µg/mL (≈ 1.26 µM); in the assay on Escherichia coli NIHJ, 3.13 µg/mL (≈ 5.04 µM).

Source of the values: patent publication US3951955A, “Penicillins substituted with heterocyclic groups” (Sumitomo Chemical Company, Limited, priority 1970, dated 1976).
